From ChEMBL document CHEMBL1201862, “PubChem BioAssay data set” (2004)
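Step 1: Grow cells in 96-well plates. Step 2: Expose to compound for 48 hours at 5 concentrations. Step 3: Interpolate endpoints linearly; if unreached, use highest concentration. Abbreviation: GI50, concentration required for 50% inhibition of growth.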 Active and inactive are the calls of the source. Rule as the data show it: active = GI50 up to about 1.1 µM and inactive = higher.

Assays:
Experiment in all cases: DTP human tumour cell line panel, 48 h
[1] = system: CCRF-CEM
[2] = system: DMS-273
[3] = system: HCT-15
[4] = system: KM12
[5] = system: LOX IMVI
[6] = system: Malme-3M
[7] = system: NCI-H522
[8] = system: RPMI-8226
[9] = system: SF-539
[10] = system: SK-OV-3
[11] = system: SN12C
[12] = system: SNB-19
[13] = system: DU-145
[14] = system: HCT-116
[15] = system: MDA-MB-231
[16] = system: MDA-MB-435
[17] = system: MDA-N
[18] = system: NCI-H226
[19] = system: PC-3
[20] = system: RXF 393

Row | Compound | GI50 [1] | GI50 [2] | GI50 [3] | GI50 [4] | GI50 [5] | GI50 [6] | GI50 [7] | GI50 [8] | GI50 [9] | GI50 [10] | GI50 [11] | GI50 [12] | GI50 [13] | GI50 [14] | GI50 [15] | GI50 [16] | GI50 [17] | GI50 [18] | GI50 [19] | GI50 [20]
1 | COc1ccc(-c2cc(O)c3cc4c(cc3n2)OCO4)c(OC)c1 | 34.4 µM (inactive) | 33.7 µM (inactive) | 38.9 µM | 41.6 µM (inactive) | 47.9 µM (inactive) | 25.2 µM (inactive) | 46.9 µM (inactive) | 28.3 µM (inactive) | 51.3 µM (inactive) | 87.3 µM (inactive) | 59.6 µM (inactive) | 67.6 µM (inactive) |  |  |  |  |  |  |  | 
2 | CCN(CC)c1ccc2cc(-c3nnc(-c4ccccc4)o3)c(=O)oc2c1 | 3.89 µM (inactive) |  | 6.35 µM | 46.7 µM (inactive) | 29.6 µM (inactive) | > 66.8 µM (inactive) | 28.8 µM (inactive) | 12.1 µM (inactive) | 13 µM (inactive) | 14.7 µM (inactive) | 31.4 µM (inactive) | 25.9 µM (inactive) | 66.2 µM (inactive) | 19.9 µM (inactive) | 22.9 µM (inactive) | > 48.6 µM (inactive) | 48.5 µM (inactive) | 29.4 µM (inactive) | 30.8 µM (inactive) | 14.5 µM (inactive)
3 | CC1(O)CC2C(CC1SCCO)C2(C)C (stereo unspecified) | > 100 µM (inactive) | > 100 µM (inactive) | > 100 µM | > 100 µM (inactive) |  | > 100 µM (inactive) |  | > 100 µM (inactive) | > 100 µM (inactive) | > 100 µM (inactive) | > 100 µM (inactive) |  |  | > 100 µM (inactive) |  |  |  |  |  | 
4 | COc1ccc(Nc2nc3ccccc3nc2C(=O)O)cc1OC | 47.3 µM (inactive) |  | 50.7 µM | 66.8 µM (inactive) | 99.8 µM (inactive) | 34 µM (inactive) | > 100 µM (inactive) | 65.8 µM (inactive) | > 100 µM (inactive) | 64.4 µM (inactive) | 48.1 µM (inactive) | 73.1 µM (inactive) | > 100 µM (inactive) | > 100 µM (inactive) | 56.2 µM (inactive) | > 100 µM (inactive) | > 100 µM (inactive) | 57 µM (inactive) | > 100 µM (inactive) | 74.1 µM (inactive)
5 | N/N=C1/C(=O)N(c2ccc(Cl)cc2)C(=O)C(=O)C1c1nc2ccccc2s1 (stereo unspecified) | 74.6 µM (inactive) | > 100 µM (inactive) | 72.1 µM | > 100 µM (inactive) | > 100 µM (inactive) | > 100 µM (inactive) | > 100 µM (inactive) | > 100 µM (inactive) | > 100 µM (inactive) | > 100 µM (inactive) | > 100 µM (inactive) | > 100 µM (inactive) |  | > 100 µM (inactive) |  |  |  |  |  | > 100 µM (inactive)
6 | C=CCN1C(N)=C(C#N)C(C#N)(C#N)C1CCC (stereo unspecified) | > 100 µM (inactive) |  | > 100 µM | > 100 µM (inactive) | > 100 µM (inactive) | > 100 µM (inactive) | > 100 µM (inactive) | > 100 µM (inactive) | > 100 µM (inactive) | > 100 µM (inactive) | > 100 µM (inactive) | > 100 µM (inactive) | > 100 µM (inactive) | > 100 µM (inactive) | > 100 µM (inactive) | > 100 µM (inactive) | > 100 µM (inactive) | > 100 µM (inactive) | > 100 µM (inactive) | > 100 µM (inactive)
7 | c1ccc(-c2c(-c3[nH]c4ccccc4c3-c3ccccc3)[nH]c3ccccc23)cc1 | 3.4 µM (inactive) |  | 4.32 µM | 3.03 µM (inactive) | 1.92 µM (inactive) | 13.7 µM (inactive) | 3.18 µM (inactive) | 2.94 µM (inactive) | 7.96 µM (inactive) | 8.15 µM (inactive) | 1.91 µM (inactive) | 6.5 µM (inactive) | 3.38 µM (inactive) | 4.06 µM (inactive) | 3.4 µM (inactive) | 3.44 µM (inactive) | 2.74 µM (inactive) | 11.6 µM (inactive) | 3.6 µM (inactive) | 1.82 µM (inactive)
8 | S=C1/C(=N/c2ccccc2)N(C2CCCCC2)/C(=N\C2CCCCC2)N1c1ccccc1 | > 100 µM (inactive) |  | > 100 µM | 42.7 µM (inactive) | > 100 µM (inactive) | > 100 µM (inactive) | 6.73 µM (inactive) | > 100 µM (inactive) | 1.18 µM (inactive) | > 100 µM (inactive) | 47.8 µM (inactive) | 47.2 µM (inactive) | > 100 µM (inactive) | 68.9 µM (inactive) | > 100 µM (inactive) | > 100 µM (inactive) | > 100 µM (inactive) | > 100 µM (inactive) | 63.8 µM (inactive) | > 100 µM (inactive)
9 | COC(=O)C1=C(C)N(NC(N)=O)C(C)(O)C12CCOC2=O (stereo unspecified) | > 100 µM (inactive) | > 100 µM (inactive) | > 100 µM | > 100 µM (inactive) | > 100 µM (inactive) | > 100 µM (inactive) | > 100 µM (inactive) | > 100 µM (inactive) | > 100 µM (inactive) | > 100 µM (inactive) | > 100 µM (inactive) | > 100 µM (inactive) |  | > 100 µM (inactive) |  |  |  | > 100 µM (inactive) |  | 
10 | COc1ccccc1NC(=O)C1=C(C)NC(C)=C(C(=O)Nc2ccccc2OC)C1c1ccccc1F | 54.3 µM (inactive) | 70.3 µM (inactive) | 98.6 µM | 66.7 µM (inactive) | > 100 µM (inactive) | 63.1 µM (inactive) |  | 62.1 µM (inactive) | 30.5 µM (inactive) | > 100 µM (inactive) | > 100 µM (inactive) | > 100 µM (inactive) |  | 59 µM (inactive) |  |  |  | > 100 µM (inactive) |  | 
11 | O=C(CN1CCCCC1)N1CCc2c([nH]c3ccccc23)C1c1cccnc1 (stereo unspecified) | > 100 µM (inactive) | > 100 µM (inactive) | > 100 µM | > 100 µM (inactive) | > 100 µM (inactive) |  | > 100 µM (inactive) | > 100 µM (inactive) | > 100 µM (inactive) | > 100 µM (inactive) | > 100 µM (inactive) | > 100 µM (inactive) |  | > 100 µM (inactive) |  |  |  |  |  | 40.5 µM (inactive)
12 | Cn1nc(-c2ccccc2)c(C(=O)/C=C/c2ccc(Cl)cc2)c(N2CCCCC2)c1=O | 2.18 µM (inactive) | 2.31 µM (inactive) | 2.98 µM |  | 2.41 µM (inactive) |  | 1.85 µM (inactive) | 2.05 µM (inactive) | 1.61 µM (inactive) | 3.52 µM (inactive) | 3.53 µM (inactive) | 2.14 µM (inactive) |  | 1.81 µM (inactive) |  |  |  |  |  | 1.32 µM (inactive)
13 | Cc1cccc2nc3c(=O)[nH]c(=O)nc-3n(C)c12 | 28.6 µM (inactive) |  | 52.8 µM | 31.9 µM (inactive) | 54 µM (inactive) | 21.3 µM (inactive) | 29.2 µM (inactive) | 29.7 µM (inactive) | 41.1 µM (inactive) | > 100 µM (inactive) | > 100 µM (inactive) | 71.3 µM (inactive) | > 100 µM (inactive) | 30.4 µM (inactive) | > 100 µM (inactive) | 17.6 µM (inactive) | 62.1 µM (inactive) | > 100 µM (inactive) | 66.7 µM (inactive) | > 100 µM (inactive)
14 | C=CCCCCC1CCC2CCC(CCCCC=C)N12 (stereo unspecified) | 11.6 µM (inactive) | 20 µM (inactive) | 6.3 µM | 15.8 µM (inactive) |  | 15.8 µM (inactive) | 14.2 µM (inactive) | 16.1 µM (inactive) | 16.9 µM (inactive) |  | 15.7 µM (inactive) | 19 µM (inactive) |  | 14.2 µM (inactive) |  |  |  | 18.2 µM (inactive) |  | 
15 | Cc1c(C(=O)/C=C/c2ccccc2Cl)[n+]([O-])c2ccccc2[n+]1[O-] |  | 14.3 µM (inactive) | 10.1 µM | 14.3 µM (inactive) |  | 15.6 µM (inactive) | 11.2 µM (inactive) | 11.9 µM (inactive) | 15.9 µM (inactive) | 20.4 µM (inactive) | 15.1 µM (inactive) | 17.3 µM (inactive) |  | 10.6 µM (inactive) |  |  |  | 15.3 µM (inactive) |  | 
16 | COc1ccc(Oc2ccc3cc4c(cc3c2O)OCO4)c2cc(C)oc12 | 21.7 µM (inactive) |  | 22.1 µM | 28.3 µM (inactive) | 19.3 µM (inactive) | 24.2 µM (inactive) | 20.9 µM (inactive) | 14.9 µM (inactive) | 20.2 µM (inactive) | 52.7 µM (inactive) | 29.6 µM (inactive) | 36.9 µM (inactive) | 39.7 µM (inactive) | 26.4 µM (inactive) | 33.9 µM (inactive) | 22.3 µM (inactive) | 29.6 µM (inactive) | 25.4 µM (inactive) | 24.8 µM (inactive) | 15.7 µM (inactive)
17 | CC12CCC(C)(c3cc(O)c(O)cc31)c1cc(O)c(O)cc12 | 2.92 µM (inactive) | 17.3 µM (inactive) | 13.7 µM | 17.1 µM (inactive) | 16.4 µM (inactive) | 18.3 µM (inactive) | 2.29 µM (inactive) | 8.51 µM (inactive) |  | 19.2 µM (inactive) | 21.8 µM (inactive) | 15.5 µM (inactive) |  |  |  |  |  |  |  | 16.1 µM (inactive)
18 | C=C1C(=O)OC2C1CC[C@H](C)C1(O)C(O)CC(=O)[C@@]21C (stereo partly specified) | > 10 µM (inactive) | 22.3 µM (inactive) |  | 17.3 µM (inactive) |  | 17.3 µM (inactive) |  | 22.1 µM (inactive) | 19 µM (inactive) | 24.9 µM (inactive) | 22 µM (inactive) | 52 µM (inactive) |  | 15 µM (inactive) |  |  |  | 21.7 µM (inactive) |  | > 10 µM (inactive)
19 | COc1cc2c(c(OC)c1OC)-c1ccc(SC)c(=O)cc1[C@@H](NC(=O)c1ccc(F)cc1)CC2 | < 0.01 µM (active) | < 0.01 µM (active) |  | 0.0217 µM (active) | 0.0501 µM (active) | 0.0615 µM (active) | < 0.01 µM (active) | 0.0498 µM (active) | 0.0283 µM (active) | 0.0294 µM (active) | 0.0384 µM (active) |  |  | 0.0416 µM (active) |  |  |  | 0.0381 µM (active) |  | 
